From ChEMBL document CHEMBL1909046, “DrugMatrix in vitro pharmacology data”

Biological target: Beta-1 adrenergic receptor (Homo sapiens, UniProt P08588)
Experiment: DRUGMATRIX: Adrenergic beta1 radioligand binding (ligand: [125I] Cyanopindolol)
Format: cell membranes, CHO-K1, Membrane
Settings: cho-k1; Not Active = under 50% inhibition at 10 µM

Sequence of Beta-1 adrenergic receptor (P08588 whole entry): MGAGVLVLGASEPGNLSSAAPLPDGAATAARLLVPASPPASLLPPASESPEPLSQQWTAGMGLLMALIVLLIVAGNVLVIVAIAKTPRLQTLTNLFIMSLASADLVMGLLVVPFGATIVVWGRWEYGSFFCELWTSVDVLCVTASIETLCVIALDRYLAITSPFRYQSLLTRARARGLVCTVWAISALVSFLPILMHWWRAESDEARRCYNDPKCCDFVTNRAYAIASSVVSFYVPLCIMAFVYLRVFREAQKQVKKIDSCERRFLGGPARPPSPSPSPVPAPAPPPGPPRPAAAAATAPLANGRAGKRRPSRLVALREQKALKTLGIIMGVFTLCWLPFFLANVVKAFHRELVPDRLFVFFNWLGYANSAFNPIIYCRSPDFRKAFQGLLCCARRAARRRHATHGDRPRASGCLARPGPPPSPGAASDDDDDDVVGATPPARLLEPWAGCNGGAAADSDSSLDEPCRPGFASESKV

Row | Compound | IC50
1 | Fc1ccc([C@@H]2CCNC[C@H]2COc2ccc3c(c2)OCO3)cc1 [PAROXETINE] | Not Active
2 | COC1=CC(=O)C[C@@H](C)[C@]12Oc1c(Cl)c(OC)cc(OC)c1C2=O [GRISEOFULVIN] | Not Active
3 | O=P1(NCCCl)OCCCN1CCCl (stereo not given) [IFOSFAMIDE] | Not Active

Biological target: T1, D(4) dopamine receptor (Homo sapiens, UniProt P21917)
T1 sequence (P21917 whole entry): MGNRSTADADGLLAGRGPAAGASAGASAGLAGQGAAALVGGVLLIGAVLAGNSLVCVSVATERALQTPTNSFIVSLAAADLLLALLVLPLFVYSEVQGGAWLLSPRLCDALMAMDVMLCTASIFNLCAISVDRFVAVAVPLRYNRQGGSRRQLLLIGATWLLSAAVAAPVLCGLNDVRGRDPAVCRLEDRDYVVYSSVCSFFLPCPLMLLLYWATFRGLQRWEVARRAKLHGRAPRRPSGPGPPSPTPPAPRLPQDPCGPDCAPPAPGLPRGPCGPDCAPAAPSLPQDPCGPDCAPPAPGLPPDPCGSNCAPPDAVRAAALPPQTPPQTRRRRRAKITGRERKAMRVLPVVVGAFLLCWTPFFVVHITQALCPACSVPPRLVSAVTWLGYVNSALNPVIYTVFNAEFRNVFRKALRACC
Experiment: DRUGMATRIX: Dopamine D4.2 radioligand binding (ligand: [3H] Spiperone)
Format: cell membranes, CHO-K1, Membrane
Settings: cho-k1; Not Active = under 50% inhibition at 10 µM

Row | Compound | IC50
4 | Fc1ccc([C@@H]2CCNC[C@H]2COc2ccc3c(c2)OCO3)cc1 [PAROXETINE] | Not Active
5 | COC1=CC(=O)C[C@@H](C)[C@]12Oc1c(Cl)c(OC)cc(OC)c1C2=O [GRISEOFULVIN] | Not Active
6 | O=P1(NCCCl)OCCCN1CCCl (stereo not given) [IFOSFAMIDE] | Not Active

Biological target: Melanocortin receptor 4 (Homo sapiens, UniProt P32245); also: in other assays of this panel Not Active means under 50% inhibition at 10 µM
Sequence (P32245 whole entry): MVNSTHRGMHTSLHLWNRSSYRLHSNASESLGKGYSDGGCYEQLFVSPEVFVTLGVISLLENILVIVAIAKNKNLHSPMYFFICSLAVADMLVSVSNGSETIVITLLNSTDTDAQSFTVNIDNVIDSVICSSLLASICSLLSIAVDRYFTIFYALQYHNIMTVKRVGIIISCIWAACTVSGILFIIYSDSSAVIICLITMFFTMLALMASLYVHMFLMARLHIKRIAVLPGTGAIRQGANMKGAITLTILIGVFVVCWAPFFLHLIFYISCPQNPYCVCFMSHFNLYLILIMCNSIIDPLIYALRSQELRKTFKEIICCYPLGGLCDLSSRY
Experiment: not given
Format: cell membranes, Membrane
Settings: hek293

Row | Compound | IC50
7 | Fc1ccc([C@@H]2CCNC[C@H]2COc2ccc3c(c2)OCO3)cc1 [PAROXETINE] | Not Active
8 | COC1=CC(=O)C[C@@H](C)[C@]12Oc1c(Cl)c(OC)cc(OC)c1C2=O [GRISEOFULVIN] | Not Active
9 | O=P1(NCCCl)OCCCN1CCCl (stereo not given) [IFOSFAMIDE] | Not Active

Tested on: not listed separately
Experiment: DRUGMATRIX: beta-Lactamase enzyme inhibition (substrate: Nitrocefin)
Design: species or system Bacillus cereus
Settings: Not Active = under 50% inhibition at 10 µM

Row | Compound | IC50 | Ki
10 | Fc1ccc([C@@H]2CCNC[C@H]2COc2ccc3c(c2)OCO3)cc1 [PAROXETINE] | Not Active | Not Active
11 | COC1=CC(=O)C[C@@H](C)[C@]12Oc1c(Cl)c(OC)cc(OC)c1C2=O [GRISEOFULVIN] | Not Active | Not Active
12 | O=P1(NCCCl)OCCCN1CCCl (stereo not given) [IFOSFAMIDE] | Not Active | Not Active

Biological target: Mu-type opioid receptor (Homo sapiens, UniProt P35372)
Sequence (P35372 whole entry): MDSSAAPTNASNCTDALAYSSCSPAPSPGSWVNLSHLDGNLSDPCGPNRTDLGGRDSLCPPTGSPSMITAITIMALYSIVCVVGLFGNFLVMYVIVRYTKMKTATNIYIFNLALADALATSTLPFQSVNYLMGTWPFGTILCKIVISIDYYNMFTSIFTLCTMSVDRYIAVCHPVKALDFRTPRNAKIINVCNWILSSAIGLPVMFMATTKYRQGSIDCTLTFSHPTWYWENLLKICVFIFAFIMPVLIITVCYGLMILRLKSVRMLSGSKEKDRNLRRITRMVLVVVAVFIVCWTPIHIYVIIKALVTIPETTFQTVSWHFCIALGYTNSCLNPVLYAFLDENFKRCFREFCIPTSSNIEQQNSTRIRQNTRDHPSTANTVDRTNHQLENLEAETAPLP
Experiment: DRUGMATRIX: Opiate mu (OP3, MOP) radioligand binding (ligand: [3H] Diprenorphine)
Format: cell membranes, CHO-K1, Membrane
Settings: cho-k1; Not Active = under 50% inhibition at 10 µM

Row | Compound | IC50
13 | Fc1ccc([C@@H]2CCNC[C@H]2COc2ccc3c(c2)OCO3)cc1 [PAROXETINE] | Not Active
14 | COC1=CC(=O)C[C@@H](C)[C@]12Oc1c(Cl)c(OC)cc(OC)c1C2=O [GRISEOFULVIN] | Not Active
15 | O=P1(NCCCl)OCCCN1CCCl (stereo not given) [IFOSFAMIDE] | Not Active

Biological target: T2, Cathepsin G (Homo sapiens, UniProt P08311);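 also: inhibition of Cathepsin G enzyme activity, tested on an AMC-conjugated peptide substrate; in other assays of this panel Not Active means under 50% inhibition at 10 µM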
T2 sequence (P08311 whole entry): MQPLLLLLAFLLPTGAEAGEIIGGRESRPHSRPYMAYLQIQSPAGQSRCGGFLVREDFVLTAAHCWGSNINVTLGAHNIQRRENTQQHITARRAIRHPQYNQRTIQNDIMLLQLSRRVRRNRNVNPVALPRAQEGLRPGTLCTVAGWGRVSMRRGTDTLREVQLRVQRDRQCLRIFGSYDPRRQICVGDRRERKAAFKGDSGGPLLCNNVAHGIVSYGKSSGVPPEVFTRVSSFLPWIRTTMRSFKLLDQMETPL
Experiment: not given
Format: tissue-based
Settings: neutrophil

Row | Compound | IC50
16 | Fc1ccc([C@@H]2CCNC[C@H]2COc2ccc3c(c2)OCO3)cc1 [PAROXETINE] | Not Active
17 | COC1=CC(=O)C[C@@H](C)[C@]12Oc1c(Cl)c(OC)cc(OC)c1C2=O [GRISEOFULVIN] | Not Active
18 | O=P1(NCCCl)OCCCN1CCCl (stereo not given) [IFOSFAMIDE] | Not Active

Tested on: not listed separately
Experiment: DRUGMATRIX: Leukotriene, BLT (LTB4) radioligand binding (ligand: [3H]LTB4)
Format: cell membranes, Membrane
Settings: u-937; Not Active = under 50% inhibition at 10 µM

Row | Compound | IC50 | Ki
19 | Fc1ccc([C@@H]2CCNC[C@H]2COc2ccc3c(c2)OCO3)cc1 [PAROXETINE] | Not Active | Not Active
20 | COC1=CC(=O)C[C@@H](C)[C@]12Oc1c(Cl)c(OC)cc(OC)c1C2=O [GRISEOFULVIN] | Not Active | Not Active
21 | O=P1(NCCCl)OCCCN1CCCl (stereo not given) [IFOSFAMIDE] | Not Active | Not Active

Biological target: T3, 5-hydroxytryptamine receptor 2C (Homo sapiens, UniProt P28335)
T3 sequence (P28335 whole entry): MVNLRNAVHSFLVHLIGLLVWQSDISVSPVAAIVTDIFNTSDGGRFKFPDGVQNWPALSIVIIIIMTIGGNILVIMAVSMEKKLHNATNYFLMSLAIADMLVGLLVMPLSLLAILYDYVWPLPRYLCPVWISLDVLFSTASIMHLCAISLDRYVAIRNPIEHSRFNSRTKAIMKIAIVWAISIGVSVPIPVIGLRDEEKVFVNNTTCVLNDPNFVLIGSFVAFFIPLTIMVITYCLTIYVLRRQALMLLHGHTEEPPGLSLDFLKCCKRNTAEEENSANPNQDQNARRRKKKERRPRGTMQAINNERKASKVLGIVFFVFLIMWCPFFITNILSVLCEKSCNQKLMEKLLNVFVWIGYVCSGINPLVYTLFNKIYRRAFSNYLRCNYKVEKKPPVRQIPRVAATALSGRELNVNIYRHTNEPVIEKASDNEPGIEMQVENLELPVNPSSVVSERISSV
Experiment: DRUGMATRIX: Serotonin (5-Hydroxytryptamine) 5-HT2C radioligand binding (ligand: [3H] Mesulergine)
Format: cell membranes, CHO-K1, Membrane
Settings: cho-k1; Not Active = under 50% inhibition at 10 µM

Row | Compound | IC50
22 | Fc1ccc([C@@H]2CCNC[C@H]2COc2ccc3c(c2)OCO3)cc1 [PAROXETINE] | Not Active
23 | COC1=CC(=O)C[C@@H](C)[C@]12Oc1c(Cl)c(OC)cc(OC)c1C2=O [GRISEOFULVIN] | Not Active
24 | O=P1(NCCCl)OCCCN1CCCl (stereo not given) [IFOSFAMIDE] | Not Active

Biological target: T4, Caspase-1 (Homo sapiens, UniProt P29466);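 also: Caspase-1 enzyme inhibition assay with a peptide substrate; in other assays of this panel Not Active means under 50% inhibition at 10 µM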
T4 sequence (P29466 whole entry): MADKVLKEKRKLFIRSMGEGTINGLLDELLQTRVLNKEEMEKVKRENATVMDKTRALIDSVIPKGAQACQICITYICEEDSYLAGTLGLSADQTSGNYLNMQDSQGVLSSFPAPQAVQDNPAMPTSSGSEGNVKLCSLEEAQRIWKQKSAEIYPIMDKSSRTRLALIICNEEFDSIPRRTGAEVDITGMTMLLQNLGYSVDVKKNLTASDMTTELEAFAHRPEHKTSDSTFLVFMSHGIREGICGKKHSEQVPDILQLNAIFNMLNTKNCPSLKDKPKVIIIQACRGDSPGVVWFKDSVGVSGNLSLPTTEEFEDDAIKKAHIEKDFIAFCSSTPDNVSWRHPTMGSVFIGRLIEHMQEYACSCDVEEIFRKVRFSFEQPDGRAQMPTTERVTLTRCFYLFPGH
Experiment: not given
Design: species or system Escherichia coli
Settings: not given

Row | Compound | IC50
25 | Fc1ccc([C@@H]2CCNC[C@H]2COc2ccc3c(c2)OCO3)cc1 [PAROXETINE] | Not Active
26 | COC1=CC(=O)C[C@@H](C)[C@]12Oc1c(Cl)c(OC)cc(OC)c1C2=O [GRISEOFULVIN] | Not Active
27 | O=P1(NCCCl)OCCCN1CCCl (stereo not given) [IFOSFAMIDE] | Not Active

Biological target: Tyrosine-protein kinase Fyn (Homo sapiens, UniProt P06241);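 also: enzymatic inhibition of Fyn kinase activity measured with Poly(Glu:Tyr) as the phosphorylation substrate; in other assays of this panel Not Active means under 50% inhibition at 10 µM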
Sequence (P06241 whole entry): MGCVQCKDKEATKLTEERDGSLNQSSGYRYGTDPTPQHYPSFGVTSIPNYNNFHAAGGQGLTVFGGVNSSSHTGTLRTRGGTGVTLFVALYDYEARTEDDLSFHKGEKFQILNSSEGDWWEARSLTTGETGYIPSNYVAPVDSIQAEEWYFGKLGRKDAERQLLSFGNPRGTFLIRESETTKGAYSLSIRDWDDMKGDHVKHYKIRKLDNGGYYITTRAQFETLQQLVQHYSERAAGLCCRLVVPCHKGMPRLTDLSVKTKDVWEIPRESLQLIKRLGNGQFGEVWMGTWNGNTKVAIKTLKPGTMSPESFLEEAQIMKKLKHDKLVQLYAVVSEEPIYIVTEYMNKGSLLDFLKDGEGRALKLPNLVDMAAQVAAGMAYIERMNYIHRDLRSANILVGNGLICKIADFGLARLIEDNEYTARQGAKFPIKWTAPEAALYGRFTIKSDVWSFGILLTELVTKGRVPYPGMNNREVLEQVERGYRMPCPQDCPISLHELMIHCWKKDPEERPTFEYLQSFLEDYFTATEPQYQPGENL
Experiment: biochemical
Format: cell-based, Insect cells
Settings: insect cells

Row | Compound | IC50
28 | Fc1ccc([C@@H]2CCNC[C@H]2COc2ccc3c(c2)OCO3)cc1 [PAROXETINE] | Not Active
29 | COC1=CC(=O)C[C@@H](C)[C@]12Oc1c(Cl)c(OC)cc(OC)c1C2=O [GRISEOFULVIN] | Not Active
30 | O=P1(NCCCl)OCCCN1CCCl (stereo not given) [IFOSFAMIDE] | Not Active

Biological target: 5-hydroxytryptamine receptor 1B (Rattus norvegicus, UniProt P28564); also: in other assays of this panel Not Active means under 50% inhibition at 10 µM
Sequence (P28564 whole entry): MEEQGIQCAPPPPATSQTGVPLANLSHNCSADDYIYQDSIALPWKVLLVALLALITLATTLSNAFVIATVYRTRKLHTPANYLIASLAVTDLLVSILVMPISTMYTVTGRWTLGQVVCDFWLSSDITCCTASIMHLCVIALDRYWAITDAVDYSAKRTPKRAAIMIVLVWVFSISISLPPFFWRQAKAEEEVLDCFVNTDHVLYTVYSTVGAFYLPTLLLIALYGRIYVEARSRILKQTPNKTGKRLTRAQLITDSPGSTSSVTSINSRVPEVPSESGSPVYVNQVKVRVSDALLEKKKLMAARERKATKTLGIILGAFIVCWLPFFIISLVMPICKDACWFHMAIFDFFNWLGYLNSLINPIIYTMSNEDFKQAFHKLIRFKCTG
Experiment: not given
Format: cell membranes, Wistar, Cerebral cortex, Membrane
Settings: not given

Row | Compound | IC50
31 | Fc1ccc([C@@H]2CCNC[C@H]2COc2ccc3c(c2)OCO3)cc1 [PAROXETINE] | Not Active
32 | COC1=CC(=O)C[C@@H](C)[C@]12Oc1c(Cl)c(OC)cc(OC)c1C2=O [GRISEOFULVIN] | Not Active
33 | O=P1(NCCCl)OCCCN1CCCl (stereo not given) [IFOSFAMIDE] | Not Active

Tested on: not listed separately
Experiment: DRUGMATRIX: Purinergic P2X radioligand binding (ligand: [3H] alpha, beta-Methylene-ATP)
Format: cell membranes, Oryctolagus cuniculus, New Zealand albino, Urinary bladder, Membrane
Settings: Not Active = under 50% inhibition at 10 µM

Row | Compound | IC50 | Ki
34 | Fc1ccc([C@@H]2CCNC[C@H]2COc2ccc3c(c2)OCO3)cc1 [PAROXETINE] | Not Active | Not Active
35 | COC1=CC(=O)C[C@@H](C)[C@]12Oc1c(Cl)c(OC)cc(OC)c1C2=O [GRISEOFULVIN] | Not Active | Not Active
36 | O=P1(NCCCl)OCCCN1CCCl (stereo not given) [IFOSFAMIDE] | Not Active | Not Active

Biological target: Epidermal growth factor receptor (Homo sapiens, UniProt P00533)
Sequence (P00533 whole entry): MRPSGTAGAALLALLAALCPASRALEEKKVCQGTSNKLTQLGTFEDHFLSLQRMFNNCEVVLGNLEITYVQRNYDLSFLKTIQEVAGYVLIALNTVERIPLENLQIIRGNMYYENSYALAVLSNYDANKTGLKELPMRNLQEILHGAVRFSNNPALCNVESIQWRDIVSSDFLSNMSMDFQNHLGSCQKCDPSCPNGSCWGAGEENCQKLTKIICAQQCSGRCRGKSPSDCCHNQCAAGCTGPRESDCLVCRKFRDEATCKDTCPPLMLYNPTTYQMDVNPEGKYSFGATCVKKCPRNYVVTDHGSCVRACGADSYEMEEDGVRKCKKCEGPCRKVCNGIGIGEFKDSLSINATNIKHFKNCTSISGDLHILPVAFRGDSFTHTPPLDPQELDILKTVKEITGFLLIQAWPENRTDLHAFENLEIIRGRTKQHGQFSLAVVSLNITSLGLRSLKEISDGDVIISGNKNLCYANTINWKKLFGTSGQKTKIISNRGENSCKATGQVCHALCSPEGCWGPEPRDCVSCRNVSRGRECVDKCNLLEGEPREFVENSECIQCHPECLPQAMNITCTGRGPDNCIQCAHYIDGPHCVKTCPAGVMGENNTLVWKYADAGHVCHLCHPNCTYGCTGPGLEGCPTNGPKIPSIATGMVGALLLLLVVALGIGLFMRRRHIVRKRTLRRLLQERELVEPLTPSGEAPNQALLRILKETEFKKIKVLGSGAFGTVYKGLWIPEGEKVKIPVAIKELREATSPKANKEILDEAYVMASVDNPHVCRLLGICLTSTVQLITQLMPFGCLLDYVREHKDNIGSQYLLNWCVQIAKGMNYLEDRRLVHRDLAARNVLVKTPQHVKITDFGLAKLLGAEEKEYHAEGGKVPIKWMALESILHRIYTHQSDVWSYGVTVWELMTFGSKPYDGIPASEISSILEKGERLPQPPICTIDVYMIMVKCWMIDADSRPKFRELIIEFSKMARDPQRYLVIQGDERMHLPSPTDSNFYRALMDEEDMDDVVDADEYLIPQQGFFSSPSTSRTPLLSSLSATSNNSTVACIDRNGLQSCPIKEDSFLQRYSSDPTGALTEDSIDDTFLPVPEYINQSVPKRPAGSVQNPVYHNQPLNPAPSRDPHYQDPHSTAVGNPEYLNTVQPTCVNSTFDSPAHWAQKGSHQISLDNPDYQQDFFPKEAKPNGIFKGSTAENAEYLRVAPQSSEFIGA
Experiment: DRUGMATRIX: Protein Tyrosine Kinase, EGF Receptor enzyme inhibition (substrate: Poly(Glu:Tyr))
Format: cell-based, Insect cells
Settings: insect cells; Not Active = under 50% inhibition at 10 µM

Row | Compound | IC50
37 | Fc1ccc([C@@H]2CCNC[C@H]2COc2ccc3c(c2)OCO3)cc1 [PAROXETINE] | Not Active
38 | COC1=CC(=O)C[C@@H](C)[C@]12Oc1c(Cl)c(OC)cc(OC)c1C2=O [GRISEOFULVIN] | Not Active
39 | O=P1(NCCCl)OCCCN1CCCl (stereo not given) [IFOSFAMIDE] | Not Active

Biological target: T5, Cysteinyl leukotriene receptor 1 (Homo sapiens, UniProt Q9Y271); also: in other assays of this panel Not Active means under 50% inhibition at 10 µM
T5 sequence (Q9Y271 whole entry): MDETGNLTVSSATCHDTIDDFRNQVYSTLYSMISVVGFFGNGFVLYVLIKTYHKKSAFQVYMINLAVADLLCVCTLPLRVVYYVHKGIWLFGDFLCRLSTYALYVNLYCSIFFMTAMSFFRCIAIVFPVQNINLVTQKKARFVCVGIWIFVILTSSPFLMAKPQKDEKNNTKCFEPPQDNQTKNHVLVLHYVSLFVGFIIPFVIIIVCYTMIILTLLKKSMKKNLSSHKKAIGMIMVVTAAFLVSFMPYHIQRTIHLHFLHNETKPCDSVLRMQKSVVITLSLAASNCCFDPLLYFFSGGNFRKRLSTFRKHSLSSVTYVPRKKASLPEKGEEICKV
Experiment: not given
Format: cell membranes, CHO-K1, Membrane
Settings: cho-k1

Row | Compound | IC50
40 | Fc1ccc([C@@H]2CCNC[C@H]2COc2ccc3c(c2)OCO3)cc1 [PAROXETINE] | Not Active
41 | COC1=CC(=O)C[C@@H](C)[C@]12Oc1c(Cl)c(OC)cc(OC)c1C2=O [GRISEOFULVIN] | Not Active
42 | O=P1(NCCCl)OCCCN1CCCl (stereo not given) [IFOSFAMIDE] | Not Active

Biological target: Melanocortin receptor 5 (Homo sapiens, UniProt P33032); also: in other assays of this panel Not Active means under 50% inhibition at 10 µM
Sequence (P33032 whole entry): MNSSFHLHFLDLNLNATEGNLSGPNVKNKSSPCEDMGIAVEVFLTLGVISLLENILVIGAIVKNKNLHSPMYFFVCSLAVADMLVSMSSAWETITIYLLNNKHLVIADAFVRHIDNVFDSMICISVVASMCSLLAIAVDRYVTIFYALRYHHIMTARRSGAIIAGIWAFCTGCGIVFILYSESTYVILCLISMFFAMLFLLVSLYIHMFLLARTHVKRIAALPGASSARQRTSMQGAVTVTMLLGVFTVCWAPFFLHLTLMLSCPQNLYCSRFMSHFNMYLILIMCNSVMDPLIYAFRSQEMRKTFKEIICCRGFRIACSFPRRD
Experiment: not given
Format: cell membranes, HEK293, Membrane
Settings: hek293

Row | Compound | IC50
43 | Fc1ccc([C@@H]2CCNC[C@H]2COc2ccc3c(c2)OCO3)cc1 [PAROXETINE] | Not Active
44 | COC1=CC(=O)C[C@@H](C)[C@]12Oc1c(Cl)c(OC)cc(OC)c1C2=O [GRISEOFULVIN] | Not Active
45 | O=P1(NCCCl)OCCCN1CCCl (stereo not given) [IFOSFAMIDE] | Not Active

Tested on: not listed separately
Experiment: DRUGMATRIX: Sigma2 radioligand binding (ligand: [3H] Ifenprodil)
Format: cell membranes, Rattus norvegicus, Wistar, Brain, Membrane
Settings: Not Active = under 50% inhibition at 10 µM

Row | Compound | IC50 | Ki
46 | Fc1ccc([C@@H]2CCNC[C@H]2COc2ccc3c(c2)OCO3)cc1 [PAROXETINE] | Not Active | Not Active
47 | COC1=CC(=O)C[C@@H](C)[C@]12Oc1c(Cl)c(OC)cc(OC)c1C2=O [GRISEOFULVIN] | Not Active | Not Active
48 | O=P1(NCCCl)OCCCN1CCCl (stereo not given) [IFOSFAMIDE] | Not Active | Not Active
